# According to patent EP4059493A1, “A CHLOROPHYLLIN CONTAINING PHARMACEUTICAL COMPOSITION FOR PREVENTION OF PATHOGENESIS OF CORONAVIRUS DISEASE” (priority 2021, dated 2022):
# Read-outs that look alike come from different tables or passages of the source.
# Tests used:
# rats [1] = assay: 28 day repeat dose toxicity study; assay type: in vivo; conditions: daily dose of 1000 mg per kg body weight for 28 consecutive days
# Description: (§1) Different doses of Chlorophyllin (100 to 5000 mg/kg body weight) were given to mice and rats (6 males, 6 females) by oral gavage in an accredited facility for animal toxicity testing. […] There were no signs of toxicity in rodents treated with indicated doses of Chlorophyllin.
# Vero CCL-81 cells = conditions: 5µM Concentration (Fig 4B right panel)
# white blood cell = assay: Phase I clinical study: white blood cell (WBC) count in blood; assay type: in vivo, human; conditions: 8-16hr after first dose (750 mg), fasting
# Description: (§2) An open label Phase I clinical study was conducted to assess pharmacodynamics of sodium copper Chlorophyllin in healthy adult, human male subjects under fasting conditions. The study was approved by Drug Controller General of India (DCGI). The trial is registered with the Clinical Trial Registry of India (CTRI/2018/09/015576). Five healthy male subjects were allowed to fast overnight and one Chlorophyllin tablet (750 mg) was administered to each subject by oral route along with ∼200 ml water. The subjects were given breakfast, lunch and snacks and a second tablet of Chlorophyllin (750 mg) was administered to each subject by oral route along with 200 ml water after 12 hr.
# (§3) Chlorophyllin tablets comprising Chlorophyllin or salts thereof (750 mg), were administered to healthy human subjects after overnight fasting. Blood samples were collected through an indwelling intravenous cannula (Venflon) placed in the fore arm vein of the subjects at different time intervals. Absolute neutrophil count (ANC) and white blood cell (WBC) counts were measured. Serum was separated and chemokine concentration in the serum was measured using cytometric bead array.
# MIP-1β = assay: Phase I clinical study: serum chemokine by cytometric bead array, MIP-1β; assay type: in vivo, human; conditions: 24hr after first dose
# Description: as §2, §3
# neutrophils = assay: Phase I clinical study: absolute neutrophil count (ANC) in blood; assay type: in vivo, human
# Description: as §2, §3
# SARS-CoV-2 virus = assay type: cell-based
# healthy human subjects = assay: Phase I clinical study: tolerability in healthy human subjects; assay type: in vivo; conditions: 750 mg given twice a day, all five human subjects
# Description: as §2
# MIP-1α = assay: Phase I clinical study: serum chemokine by cytometric bead array, MIP-1α; assay type: in vivo, human; conditions: 72hr after first dose
# Description: as §2, §3
# mice = assay: Acute oral toxicity (oral gavage), mice; assay type: in vivo
# Description: as §1
# lymphocytes = assay: Phase I clinical study: lymphocyte counts in blood; assay type: in vivo, human; conditions: Fig 4A
# Description: as §2, §3
# MCP-1 = assay: Phase I clinical study: serum chemokine by cytometric bead array, MCP-1; assay type: in vivo, human; conditions: 24hr after first dose
# Description: as §2, §3
# rats [2] = assay: Acute oral toxicity (oral gavage), rats; assay type: in vivo
# Description: as §1
# [3] = test system: CD34+ hematopoietic stem and progenitor cells; assay: Phase I clinical study: CD34+ hematopoietic stem and progenitor cells in blood by flow cytometry; assay type: in vivo, human; conditions: 750 mg tablets, fasting (Fig 2)
# Description: as §2
# Blood sample at each time point was also collected in K2EDTA vacutainer tube and erythrocytes were lysed using RBC lysis buffer. Then cells were stained with fixable far red live dead reagent and PE-CD34 and FITC-CD45 antibodies at 4°C and fixed with 4% formaldehyde. The frequency of CD34+ hematopoietic stem and progenitor cells in the blood was determined by flow cytometry and FlowJo software.
substance,measurement,setting,value
Sodium copper Chlorophyllin,tolerability in repeat dose toxicity study,rats [1],well tolerated
same,cytotoxicity in the target cells,Vero CCL-81 cells,without causing cytotoxicity
same,increase in WBC count relative to pre-dose value,white blood cell,12.8-26.5%
same,relative decrease in MIP-1β in human blood as compared to pre-dose value,MIP-1β,11-55%
same,time after first dose at which ANC increase was observed,"neutrophils; 750 mg, 4hr before second dose",≤ 8 h
same,increase in ANC relative to pre-dose value,"neutrophils; 8-16 hr after first dose (750 mg), fasting, five subjects",12.4-32.5%
same,effect on SARS-CoV-2 virus multiplication,SARS-CoV-2 virus; 0.1 micro molar concentration (Fig 4 right panel),did not inhibit
same,inhibition of SARS-CoV-2 multiplication,"SARS-CoV-2 virus; 5 micro-molar concentration, 72 hr (three days), Vero CCL-81 cells",~87%
same,EC50,"SARS-CoV-2 virus; 72 hr treatment, read-out: concentration of CHL required to inhibit the growth of SARS-CoV-2 virus by 50% (EC50)",< 1000 nM
same,concentration of chlorophyllin required for ∼90% inhibition of multiplication of SARS-CoV-2 virus,SARS-CoV-2 virus; Fig 4,about 5 micro molar
same,EC50,"SARS-CoV-2 virus; Vero CCL-81 cells, 72 hr, read-out: concentration of Chlorophyllin required for inhibition of 50% viral multiplication(EC50)",< 1000 nM
same,effect on multiplication of SARS-CoV-2 virus,SARS-CoV-2 virus; less than 1 micro-molar concentration,did not significantly decrease
same,tolerability in human subjects,healthy human subjects,well tolerated
same,relative decrease in MIP-1α in human blood as compared to pre-dose value,MIP-1α,12-21%
same,tolerability of acute oral dose,"mice; mice, up to 5000 mg/kg body weight, oral gavage",well tolerated
same,LD50 dose,"mice; rodents (mice), proposed from absence of toxicity, morbidity or mortality",higher than 5000 mg/kg body weight
same,increase in the lymphocyte counts in human blood as compared to pre-dose value,lymphocytes,up to 30%
same,relative decrease in MCP-1 in human blood as compared to pre-dose value,MCP-1,13-37%
same,tolerability of acute oral dose,"rats [2]; rats, up to 5000 mg/kg body weight, oral gavage",well tolerated
same,LD50 dose,"rats [2]; rodents (rats), proposed from absence of toxicity, morbidity or mortality",higher than 5000 mg/kg body weight
same,relative decrease in percentage of CD34+ HPSCs in human blood as compared to pre-dose value,[3],50-85%
